# Measurements from article PMC3257383 (Journal of Medicinal Chemistry, 2011).
# Experiments:
# Purified CYP3A4 = Purified CYP3A4 (Homo sapiens, UniProt P08684, S18F); details: for Soret peak / Soret trough: human, 20 µM, pH 7.4
# CYP3A4 baculosomes = CYP3A4 baculosomes (Homo sapiens, UniProt P08684); test: Saturation kinetics of metabolism by CYP3A4; assay type: in vitro ADME
SMILES,Binding mode (Purified CYP3A4),Soret peak (Purified CYP3A4) [nm],Soret trough (Purified CYP3A4) [nm],kcat smaller than type I binding compound 2 (CYP3A4 baculosomes; compared with compound 2 of series 1),kcat larger than type I binding compound 10 (CYP3A4 baculosomes; compared with compound 10 of series 3) [times],kcat higher than type I binding compounds 3 and 11 (CYP3A4 baculosomes; compared with compounds 3 and 11),"rate of benzylic hydroxylation compared to O-demethylation of compound 5 (CYP3A4 baculosomes; type II binding compounds, relative to aromatic hydroxylation in ring A)"
CN(C)c1ccc(NC(=O)c2cc(-c3ccccc3)nc3ccccc23)cc1 [Compound 2],Type I,385,416,–,–,–,–
O=C(Nc1ccccc1)c1cc(-c2ccccc2)nc2ccccc12 [Compound 3],Type I,392,417,–,–,–,–
Cc1ccc(NC(=O)c2cc(-c3ccccc3)nc3ccccc23)cc1 [Compound 4],Type I,393,417,–,–,–,–
COc1ccc(NC(=O)c2cc(-c3ccncc3)nc3ccccc23)cc1 [Compound 5],Type II,427,391,–,–,–,–
CN(C)c1ccc(NC(=O)c2cc(-c3ccncc3)nc3ccccc23)cc1 [Compound 6],Type II ^b,427,392,more than 2 fold,1.2,–,–
O=C(Nc1ccccc1)c1cc(-c2ccncc2)nc2ccccc12 [Compound 7],Type II,427,394,–,–,about 1.5 times,–
Cc1ccc(NC(=O)c2cc(-c3ccncc3)nc3ccccc23)cc1 [Compound 8],Type II,428,392,–,–,–,about three fold faster
COc1ccc(NC(=O)c2cc(-c3ccccn3)nc3ccccc23)cc1 [Compound 9],Type I,388,417,–,–,–,–
CN(C)c1ccc(NC(=O)c2cc(-c3ccccn3)nc3ccccc23)cc1 [Compound 10],Type I,386,416,–,–,–,–
O=C(Nc1ccccc1)c1cc(-c2ccccn2)nc2ccccc12 [Compound 11],Type I,389,418,–,–,–,–
Cc1ccc(NC(=O)c2cc(-c3ccccn3)nc3ccccc23)cc1 [Compound 12],Type I,391,416,–,–,–,–
COc1ccc(NC(=O)c2cc(-c3cnccn3)nc3ccccc23)cc1 [Compound 13],Type II,423,396,–,–,–,–

# Next, values leading:
Binding mode (Purified CYP3A4),Soret peak (Purified CYP3A4) [nm],Soret trough (Purified CYP3A4) [nm],kcat smaller than type I binding compound 2 (CYP3A4 baculosomes; compared with compound 2 of series 1),kcat larger than type I binding compound 10 (CYP3A4 baculosomes; compared with compound 10 of series 3) [times],kcat higher than type I binding compounds 3 and 11 (CYP3A4 baculosomes; compared with compounds 3 and 11),"rate of benzylic hydroxylation compared to O-demethylation of compound 5 (CYP3A4 baculosomes; type II binding compounds, relative to aromatic hydroxylation in ring A)",SMILES
Type II,425,393,–,–,–,–,CN(C)c1ccc(NC(=O)c2cc(-c3cnccn3)nc3ccccc23)cc1 [Compound 14]
Type II,427,397,–,–,–,–,O=C(Nc1ccccc1)c1cc(-c2cnccn2)nc2ccccc12 [Compound 15]
Type II,422,391,–,–,–,–,Cc1ccc(NC(=O)c2cc(-c3cnccn3)nc3ccccc23)cc1 [Compound 16]
Type II,425,391,–,–,–,–,COc1ccc(NC(=O)c2cc(-c3ccncn3)nc3ccccc23)cc1 [Compound 17]
Type II,422,392,–,–,–,–,CN(C)c1ccc(NC(=O)c2cc(-c3ccncn3)nc3ccccc23)cc1 [Compound 18]
Type II,424,390,–,–,–,–,O=C(Nc1ccccc1)c1cc(-c2ccncn2)nc2ccccc12 [Compound 19]
Type II,425,390,–,–,–,–,Cc1ccc(NC(=O)c2cc(-c3ccncn3)nc3ccccc23)cc1 [Compound 20]
